This note sets out measurements from patent US8471005B2 (Cephalon, Inc., priority 2008, dated 2013).

The target in one assay is T1, JAK2 (Homo sapiens, UniProt O60674).
T1 construct: host or cells: baculovirus expression system
The assay is described as follows: Recombinant Human JAK2 Kinase Assay (TRF). It counts as biochemical. The conditions noted are these: read-out: JAK2 Potency. In outline: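 Europium-labelled PY100 antibody reported tyrosine phosphorylation of a Neutravidin-captured biotinyl 15-mer peptide by JAK2 (baculovirus-expressed, 15 ng/ml). Conditions: 20 mM HEPES pH 7.2, 0.2 μM ATP, 1 mM MnCl2, 0.1% BSA, DMSO 2.5% final, 20 min at room temperature.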

The target in another assay is T2, ALK (Homo sapiens, UniProt Q9UM73).
T2 construct: host or cells: baculovirus expression system
T2 sequence (Q9UM73 19-1620): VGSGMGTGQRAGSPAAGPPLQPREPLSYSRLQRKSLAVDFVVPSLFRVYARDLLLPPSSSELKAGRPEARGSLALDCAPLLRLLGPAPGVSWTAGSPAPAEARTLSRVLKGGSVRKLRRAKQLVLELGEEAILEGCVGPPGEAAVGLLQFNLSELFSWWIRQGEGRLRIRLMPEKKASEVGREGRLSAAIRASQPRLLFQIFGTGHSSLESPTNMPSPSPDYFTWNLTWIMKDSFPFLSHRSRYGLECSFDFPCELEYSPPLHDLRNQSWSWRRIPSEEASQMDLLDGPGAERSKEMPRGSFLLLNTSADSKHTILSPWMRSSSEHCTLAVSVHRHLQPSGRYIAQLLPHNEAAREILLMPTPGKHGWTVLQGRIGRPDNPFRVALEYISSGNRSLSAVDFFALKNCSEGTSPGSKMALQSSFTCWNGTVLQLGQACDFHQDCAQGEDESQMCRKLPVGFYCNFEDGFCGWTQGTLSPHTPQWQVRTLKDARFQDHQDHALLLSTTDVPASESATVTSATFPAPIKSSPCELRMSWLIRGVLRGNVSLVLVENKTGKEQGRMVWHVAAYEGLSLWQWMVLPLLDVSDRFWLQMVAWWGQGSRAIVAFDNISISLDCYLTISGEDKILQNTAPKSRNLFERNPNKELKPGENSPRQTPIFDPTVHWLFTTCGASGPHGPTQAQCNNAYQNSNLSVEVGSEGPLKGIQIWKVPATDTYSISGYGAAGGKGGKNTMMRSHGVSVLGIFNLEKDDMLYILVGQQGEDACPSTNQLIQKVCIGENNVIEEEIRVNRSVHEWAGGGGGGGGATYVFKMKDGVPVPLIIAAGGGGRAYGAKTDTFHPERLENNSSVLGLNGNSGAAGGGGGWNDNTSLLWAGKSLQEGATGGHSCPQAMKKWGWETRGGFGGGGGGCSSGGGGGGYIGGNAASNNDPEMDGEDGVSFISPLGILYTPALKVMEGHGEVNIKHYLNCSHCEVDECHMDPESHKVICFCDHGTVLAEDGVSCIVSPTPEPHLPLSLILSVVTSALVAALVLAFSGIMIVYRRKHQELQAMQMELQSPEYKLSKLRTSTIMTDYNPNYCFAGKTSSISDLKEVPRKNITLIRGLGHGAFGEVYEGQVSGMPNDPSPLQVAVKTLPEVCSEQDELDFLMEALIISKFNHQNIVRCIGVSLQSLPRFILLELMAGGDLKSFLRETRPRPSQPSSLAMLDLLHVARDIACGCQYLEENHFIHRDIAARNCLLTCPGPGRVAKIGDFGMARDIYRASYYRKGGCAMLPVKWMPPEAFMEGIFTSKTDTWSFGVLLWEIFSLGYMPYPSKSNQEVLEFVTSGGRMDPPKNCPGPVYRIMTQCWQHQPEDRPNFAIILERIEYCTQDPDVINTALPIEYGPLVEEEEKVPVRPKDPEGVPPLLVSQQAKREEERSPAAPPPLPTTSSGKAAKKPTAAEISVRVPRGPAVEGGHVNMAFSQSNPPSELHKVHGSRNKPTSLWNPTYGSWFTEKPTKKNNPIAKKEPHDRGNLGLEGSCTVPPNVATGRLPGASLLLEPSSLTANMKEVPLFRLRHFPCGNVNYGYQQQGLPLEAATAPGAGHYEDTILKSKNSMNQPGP
The assay can be described thus: ALK Kinase Assay (ELISA/TRF, PLC-γ substrate). It counts as biochemical. Particulars: read-out: ALK Potency. The essentials: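 IC50 values derive from percent inhibition plotted against log10 compound concentration and fitted to a variable-slope sigmoidal equation. The underlying reaction used 30 ng/ml ALK acting on immobilized PLC-γ (10 μg/mL in TBS) at 37° C for 15 minutes, read with Eu-N1 PT66 antibody.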
(An ELISA detects its analyte on a solid surface through an enzyme-linked reagent.)

Setting [1] is: JAK2 kinase inhibition, 0.2 μM ATP.
The mark [2] stands for this setting: ALK kinase inhibition, 1 μM ATP.

Where two headings read alike, the source gives them in different places.

T1 sequence (O60674 whole entry): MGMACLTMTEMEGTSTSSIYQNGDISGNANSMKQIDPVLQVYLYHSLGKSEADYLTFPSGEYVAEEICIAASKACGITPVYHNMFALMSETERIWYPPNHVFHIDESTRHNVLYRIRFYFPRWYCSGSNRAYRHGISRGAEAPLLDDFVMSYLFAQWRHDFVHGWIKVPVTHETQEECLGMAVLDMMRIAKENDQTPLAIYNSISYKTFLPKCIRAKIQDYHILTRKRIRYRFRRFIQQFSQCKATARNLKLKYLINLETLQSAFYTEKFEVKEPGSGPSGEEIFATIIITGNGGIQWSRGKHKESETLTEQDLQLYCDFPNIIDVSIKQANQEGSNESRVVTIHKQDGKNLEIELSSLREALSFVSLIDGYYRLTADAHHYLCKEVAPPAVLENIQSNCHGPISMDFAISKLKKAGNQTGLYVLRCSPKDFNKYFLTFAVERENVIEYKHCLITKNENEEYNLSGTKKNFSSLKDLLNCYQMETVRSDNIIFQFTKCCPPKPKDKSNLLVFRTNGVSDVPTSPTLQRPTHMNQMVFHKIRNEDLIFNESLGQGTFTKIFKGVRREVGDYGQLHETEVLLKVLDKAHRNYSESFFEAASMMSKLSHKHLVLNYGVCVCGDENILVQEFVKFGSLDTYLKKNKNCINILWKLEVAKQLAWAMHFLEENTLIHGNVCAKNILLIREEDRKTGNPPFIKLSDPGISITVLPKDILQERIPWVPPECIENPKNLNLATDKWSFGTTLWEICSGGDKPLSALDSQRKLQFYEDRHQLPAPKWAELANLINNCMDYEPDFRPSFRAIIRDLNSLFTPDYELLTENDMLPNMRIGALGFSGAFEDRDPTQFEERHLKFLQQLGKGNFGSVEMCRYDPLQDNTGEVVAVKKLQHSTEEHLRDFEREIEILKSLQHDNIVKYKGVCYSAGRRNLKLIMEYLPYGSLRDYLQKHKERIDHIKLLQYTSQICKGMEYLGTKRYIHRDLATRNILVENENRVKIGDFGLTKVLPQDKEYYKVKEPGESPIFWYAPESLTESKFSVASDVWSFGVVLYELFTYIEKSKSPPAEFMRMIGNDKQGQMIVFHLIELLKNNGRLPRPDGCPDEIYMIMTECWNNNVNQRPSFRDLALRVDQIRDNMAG

In the case of `COc1cc2c(cc1Nc1ncc3ccc(-c4cccc(S(=O)(=O)NC5CC5)c4)n3n1)CCN(CC(N)=O)CC2` [Example 524, 2-{7-[7-(3-Cyclopropylsulfamoyl-phenyl)-pyrrolo[2,1-f][1,2,4]triazin-2-ylamino]-8-methoxy-1,2,4,5-tetrahydro-benzo[d]azepin-3-yl}-acetamide], the IC50 was 100 to 1000 nM at JAK2 (setting [1]) and below 100 nM at ALK (setting [2]).
With `COc1cc(C2CCN(CC(N)=O)CC2)ccc1Nc1ncc2ccc(-c3cc(F)c(F)cc3N(C)S(C)(=O)=O)n2n1` [Example 746, 2-[4-(4-{7-[4,5-Difluoro-2-(methanesulfonyl-methyl-amino)-phenyl]-pyrrolo[2,1-f][1,2,4]triazin-2-ylamino}-3-methoxy-phenyl)-piperidin-1-yl]-acetamide], the values for the IC50 on JAK2 (setting [1]) and on ALK (setting [2]) were 1000 to 10000 nM and below 100 nM, respectively.
For `c1ccc(NCc2ccc3cnc(Nc4ccc(N5CCOCC5)cc4)nn23)cc1` [Example 362, (4-Morpholin-4-yl-phenyl)-(7-phenylaminomethyl-pyrrolo[2,1-f][1,2,4]triazin-2-yl)-amine], the IC50 on JAK2 (JAK2 Kinase Inhibition) was below 100 nM; at ALK (ALK Kinase Inhibition) it was 1000 to 10000 nM.
Take `COc1cc(CN2CCN(C[C@H](C)O)CC2)ccc1Nc1ncc2ccc(-c3ccccc3OC)n2n1` [Example 1226, (S)-1-(4-{3-Methoxy-4-[7-(2-methoxy-phenyl)-pyrrolo[2,1-f][1,2,4]triazin-2-ylamino]-benzyl}-piperazin-1-yl)-propan-2-ol]: the IC50 at JAK2 (setting [1]) was 100 to 1000 nM; on ALK (setting [2]), below 100 nM.
For the compound `CCS(=O)(=O)Nc1cccc(-c2ccc3cnc(Nc4ccc(N5CCN(C)CC5)cc4)nn23)c1` [Example 415, Ethanesulfonic acid (3-{2-[4-(4-methyl-piperazin-1-yl)-phenylamino]-pyrrolo[2,1-f][1,2,4]triazin-7-yl}-phenyl)-amide], the IC50 is below 100 nM on JAK2 (JAK2 Kinase Inhibition) and 100 to 1000 nM at ALK (ALK Kinase Inhibition).
With `COc1cc(N2CCC[C@@H](CN3CCN(C)CC3)C2)ccc1Nc1ncc2ccc(-c3ccccc3OC)n2n1` [Example 470, {2-Methoxy-4-[(S)-3-(4-methyl-piperazin-1-ylmethyl)-piperidin-1-yl]-phenyl}-[7-(2-methoxy-phenyl)-pyrrolo[2,1-f][1,2,4]triazin-2-yl]-amine], the IC50 at JAK2 (setting [1]) is 100 to 1000 nM; at ALK (setting [2]), below 100 nM.
As for `COc1cc(C2CCN(CC(N)=O)CC2)ccc1Nc1ncc2ccc(-c3ccc(C)cc3N(C)S(C)(=O)=O)n2n1` [Example 1280, 2-[4-(4-{7-[2-(Methanesulfonyl-methyl-amino)-4-methyl-phenyl]-pyrrolo[2,1-f][1,2,4]triazin-2-ylamino}-3-methoxy-phenyl)-piperidin-1-yl]-acetamide], the IC50 was 100 to 1000 nM at JAK2 (setting [1]) and below 100 nM on ALK (setting [2]).
On to `CC(C)(C)NS(=O)(=O)c1cccc(-c2ccc3cnc(Nc4ccc(OCCN5CCCC5)cc4)nn23)c1` [Example 118, N-tert-Butyl-3-{2-[4-(2-pyrrolidin-1-yl-ethoxy)-phenylamino]-pyrrolo[2,1-f][1,2,4]triazin-7-yl}-benzenesulfonamide], for which the IC50 is below 100 nM at JAK2 (JAK2 Kinase Inhibition) and 100 to 1000 nM on ALK (ALK Kinase Inhibition).
For the compound `COc1ccccc1-c1ccc2cnc(Nc3ccc4c(c3)CCN(C)C4)nn12` [Example 915, [7-(2-Methoxy-phenyl)-pyrrolo[2,1-f][1,2,4]triazin-2-yl]-(2-methyl-1,2,3,4-tetrahydro-isoquinolin-6-yl)-amine], the IC50 at JAK2 (setting [1]) and on ALK (setting [2]) was below 100 nM in each case.
Turning to `COc1ccccc1-c1ccc2cnc(Nc3ccc(N4CCN(CC(N)=O)CC4)c(F)c3)nn12` [Example 1416, 2-(4-{2-Fluoro-4-[7-(2-methoxy-phenyl)-pyrrolo[2,1-f][1,2,4]triazin-2-ylamino]-phenyl}-piperazin-1-yl)-acetamide], the values for the IC50 at JAK2 (JAK2 Kinase Inhibition) and at ALK (ALK Kinase Inhibition) were below 100 nM and 100 to 1000 nM, respectively.
For `COc1cc(C2CCN(CC(N)=O)CC2)ccc1Nc1ncc2ccc(-c3cccc4c3OC(F)(F)O4)n2n1` [Example 1533, 2-(4-{4-[7-(2,2-Difluoro-benzo[1,3]dioxol-4-yl)-pyrrolo[2,1-f][1,2,4]triazin-2-ylamino]-3-methoxy-phenyl}-piperidin-1-yl)-acetamide], in that order: 1000 to 10000 nM and below 100 nM.
On to `O=S(=O)(Nc1cccc(-c2ccc3cnc(Nc4ccc(N5CCOCC5)cc4)nn23)c1)C1CC1` [Example 414, Cyclopropanesulfonic acid {3-[2-(4-morpholin-4-yl-phenylamino)-pyrrolo[2,1-f][1,2,4]triazin-7-yl]-phenyl}-amide], for which the values for the IC50 at JAK2 (JAK2 Kinase Inhibition) and on ALK (ALK Kinase Inhibition) were below 100 nM and 100 to 1000 nM, respectively.
On to `CN(c1ncccc1Nc1ccc2cnc(Nc3ccc(N4CCOCC4)cc3)nn12)S(C)(=O)=O` [Example 385, N-Methyl-N-{3-[2-(4-morpholin-4-yl-phenylamino)-pyrrolo[2,1-f][1,2,4]triazin-7-ylamino]-pyridin-2-yl}-methanesulfonamide], for which the values for the IC50 on JAK2 (JAK2 Kinase Inhibition) and on ALK (ALK Kinase Inhibition) were below 100 nM and 1000 to 10000 nM, respectively.
For `CN1CCN(c2ccc(Nc3ncc4ccc(-c5cnn(C)c5)n4n3)cc2)CC1` [Example 18, [4-(4-Methyl-piperazin-1-yl)-phenyl]-[7-(1-methyl-1H-pyrazol-4-yl)-pyrrolo[2,1-f][1,2,4]triazin-2-yl]-amine], in that order: below 100 nM and 100 to 1000 nM.
`COc1cc(N2CCN(C[C@@H](C)O)CC2)ccc1Nc1ncc2ccc(-c3ccccc3OC)n2n1` [Example 754, (R)-1-(4-{3-Methoxy-4-[7-(2-methoxy-phenyl)-pyrrolo[2,1-f][1,2,4]triazin-2-ylamino]-phenyl}-piperazin-1-yl)-propan-2-ol]: the IC50 at JAK2 (setting [1]) and at ALK (setting [2]) was below 100 nM each time.
`COc1cc(OC2CCN(C)CC2)ccc1Nc1ncc2ccc(-c3ccccc3OC)n2n1` [Example 998, [2-Methoxy-4-(1-methyl-piperidin-4-yloxy)-phenyl]-[7-(2-methoxy-phenyl)-pyrrolo[2,1-f][1,2,4]triazin-2-yl]-amine]: the IC50 on JAK2 (setting [1]) and on ALK (setting [2]) was below 100 nM in each case.
Turning to `COc1cc(N2CCC(N(C)CCO)CC2)ccc1Nc1ncc2ccc(-c3ccccc3OC)n2n1` [Example 796, 2-[(1-{3-Methoxy-4-[7-(2-methoxy-phenyl)-pyrrolo[2,1-f][1,2,4]triazin-2-ylamino]-phenyl}-piperidin-4-yl)-methyl-amino]-ethanol], the IC50 on JAK2 (setting [1]) and on ALK (setting [2]) was below 100 nM each time.
On to `CN1CCN(c2ccc(Nc3ncc4ccc(-c5ccc(S(C)(=O)=O)cc5)n4n3)cc2F)CC1` [Example 1437, [3-Fluoro-4-(4-methyl-piperazin-1-yl)-phenyl]-[7-(4-methanesulfonyl-phenyl)-pyrrolo[2,1-f][1,2,4]triazin-2-yl]-amine], for which the values for the IC50 at JAK2 (JAK2 Kinase Inhibition) and on ALK (ALK Kinase Inhibition) were below 100 nM and 100 to 1000 nM, respectively.
As for `COc1ccccc1-c1ccc2cnc(Nc3cccc(N4CCC(N5CCOCC5)CC4)c3)nn12` [Example 195, [7-(2-Methoxy-phenyl)-pyrrolo[2,1-f][1,2,4]triazin-2-yl]-[3-(4-morpholin-4-yl-piperidin-1-yl)-phenyl]-amine], the IC50 on JAK2 (JAK2 Kinase Inhibition) and at ALK (ALK Kinase Inhibition) was below 100 nM throughout.
In the case of `CC(C)(C)NS(=O)(=O)c1cccc(-c2ccc3cnc(Nc4ccc(C5CCN(CC(N)=O)CC5)cc4)nn23)c1` [Example 1055, 2-(4-{4-[7-(3-tert-Butylsulfamoyl-phenyl)-pyrrolo[2,1-f][1,2,4]triazin-2-ylamino]-phenyl}-piperidin-1-yl)-acetamide], the values for the IC50 on JAK2 (setting [1]) and at ALK (setting [2]) were below 100 nM and 100 to 1000 nM, respectively.
`Clc1cccc(-c2ccc3cnc(Nc4ccc(N5CCCC(N6CCOCC6)C5)cc4)nn23)c1` (stereo not shown) [Example 345, [7-(3-Chloro-phenyl)-pyrrolo[2,1-f][1,2,4]triazin-2-yl]-[4-(3-morpholin-4-yl-piperidin-1-yl)-phenyl]-amine]: the IC50 on JAK2 (JAK2 Kinase Inhibition) is below 100 nM; on ALK (ALK Kinase Inhibition), 100 to 1000 nM.
Regarding `COc1cc(N2CCC[C@@H](CN3CCN(C)CC3)C2)ccc1Nc1ncc2ccc(-c3ccccc3N(C)S(C)(=O)=O)n2n1` [Example 469, N-[2-(2-{2-Methoxy-4-[(S)-3-(4-methyl-piperazin-1-ylmethyl)-piperidin-1-yl]-phenylamino}-pyrrolo[2,1-f][1,2,4]triazin-7-yl)-phenyl]-N-methyl-methanesulfonamide], the IC50 was 100 to 1000 nM on JAK2 (JAK2 Kinase Inhibition) and below 100 nM on ALK (ALK Kinase Inhibition).
With `O=C(O)c1ccc(-c2ccc3cnc(Nc4ccc(N5CCOCC5)cc4)nn23)cc1` [Example 45, 4-[2-(4-Morpholin-4-yl-phenylamino)-pyrrolo[2,1-f][1,2,4]triazin-7-yl]-benzoic acid], the IC50 was below 100 nM at JAK2 (JAK2 Kinase Inhibition) and above 10000 nM at ALK (ALK Kinase Inhibition).
Regarding `CN1CCN(c2ccc(Nc3ncc4c(Br)cc(-c5ccccc5)n4n3)cc2)CC1` [Example 100, (5-Bromo-7-phenyl-pyrrolo[2,1-f][1,2,4]triazin-2-yl)-[4-(4-methyl-piperazin-1-yl)-phenyl]-amine], the IC50 at JAK2 (JAK2 Kinase Inhibition) was below 100 nM; at ALK (ALK Kinase Inhibition), 100 to 1000 nM.
`Cn1cc(-c2ccc3cnc(Nc4ccc(N5CCC(N6CCOCC6)CC5)cc4)nn23)cn1` [Example 1187, [7-(1-Methyl-1H-pyrazol-4-yl)-pyrrolo[2,1-f][1,2,4]triazin-2-yl]-[4-(4-morpholin-4-yl-piperidin-1-yl)-phenyl]-amine]: the figures for the IC50 on JAK2 (setting [1]) and at ALK (setting [2]) were below 100 nM and 100 to 1000 nM, respectively.
Take `COc1ccc(Cl)cc1-c1ccc2cnc(Nc3ccc(CN4CCN(C)CC4)cc3)nn12` [Example 354, [7-(5-Chloro-2-methoxy-phenyl)-pyrrolo[2,1-f][1,2,4]triazin-2-yl]-[4-(4-methyl-piperazin-1-ylmethyl)-phenyl]-amine]: the IC50 at JAK2 (JAK2 Kinase Inhibition) and at ALK (ALK Kinase Inhibition) was below 100 nM in each case.
